Laboratory results published in ChEMBL document CHEMBL4325917, “Heterocyclic Amides as Kinase Inhibitors” (ACS Med Chem Lett, 2018).

Molecular target: T1, Receptor-interacting serine/threonine-protein kinase 1 (Homo sapiens, UniProt Q13546)
T1 sequence (Q13546 whole entry): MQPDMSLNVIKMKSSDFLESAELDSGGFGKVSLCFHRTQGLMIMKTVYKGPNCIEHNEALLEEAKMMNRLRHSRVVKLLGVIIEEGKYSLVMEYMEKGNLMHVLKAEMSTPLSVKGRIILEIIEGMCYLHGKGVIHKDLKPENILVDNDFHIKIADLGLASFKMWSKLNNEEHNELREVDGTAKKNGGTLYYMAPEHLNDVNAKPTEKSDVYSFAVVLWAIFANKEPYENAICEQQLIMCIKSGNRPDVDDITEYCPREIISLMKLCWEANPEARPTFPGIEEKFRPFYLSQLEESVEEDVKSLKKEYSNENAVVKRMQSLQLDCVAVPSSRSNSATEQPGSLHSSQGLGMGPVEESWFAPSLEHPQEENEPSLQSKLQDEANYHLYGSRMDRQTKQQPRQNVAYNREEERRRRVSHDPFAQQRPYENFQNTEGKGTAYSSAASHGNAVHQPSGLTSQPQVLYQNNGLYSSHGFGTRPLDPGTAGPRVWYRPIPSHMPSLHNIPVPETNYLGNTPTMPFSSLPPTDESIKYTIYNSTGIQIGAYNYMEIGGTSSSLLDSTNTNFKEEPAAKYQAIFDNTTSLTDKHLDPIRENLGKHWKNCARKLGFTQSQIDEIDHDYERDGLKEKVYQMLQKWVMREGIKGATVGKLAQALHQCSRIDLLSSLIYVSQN
Experiment: Binding affinity to RIP1 (unknown origin) by fluorescence polarization assay

O=C(N[C@H]1CNc2cc(Cl)ccc2NC1=O)c1nnc(Cc2ccccc2)[nH]1
IC50: 20 nM
